Usually IC50 stands for the concentration that inhibits the measured activity by half. Read a high IC50 as lower potency.

This assay has as its target T1, Androgen receptor (AR) (Rattus norvegicus, UniProt P15207).
T1 sequence (P15207 646-902 limits assumed): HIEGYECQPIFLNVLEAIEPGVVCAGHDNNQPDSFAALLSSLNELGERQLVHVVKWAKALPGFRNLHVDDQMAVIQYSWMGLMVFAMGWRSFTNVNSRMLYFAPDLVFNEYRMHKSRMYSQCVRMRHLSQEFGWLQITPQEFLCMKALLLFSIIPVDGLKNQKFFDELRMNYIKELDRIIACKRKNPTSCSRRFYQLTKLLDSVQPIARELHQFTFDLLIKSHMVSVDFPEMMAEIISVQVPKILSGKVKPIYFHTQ
Put plainly: fluorescence polarization competition assay (PolarScreen AR Competitor Assay kit); very weak. The format is binding. On the technique in general: Fluorescence polarisation rises when a labelled molecule tumbles more slowly, as on binding a larger partner.

As to `O=C(/C=C/c1ccc(O)c(O)c1)OCCc1ccccc1` [Caffeic acid phenethyl ester], the IC50 came out at 132 µM.

The values are drawn from PMC6700801, “Caffeic acid phenethyl ester suppresses androgen receptor signaling and stability via inhibition of phosphorylation on Ser81 and Ser213” (Cell Communication and Signaling : CCS, 2019).
